Common to all, as to type: biochemical
In experiment [1] the target is T1, human liver α-fucosidase (Homo sapiens, UniProt P04066).
T1 construct: from tissue; host or cells: human liver
T1 sequence (P04066 32-466): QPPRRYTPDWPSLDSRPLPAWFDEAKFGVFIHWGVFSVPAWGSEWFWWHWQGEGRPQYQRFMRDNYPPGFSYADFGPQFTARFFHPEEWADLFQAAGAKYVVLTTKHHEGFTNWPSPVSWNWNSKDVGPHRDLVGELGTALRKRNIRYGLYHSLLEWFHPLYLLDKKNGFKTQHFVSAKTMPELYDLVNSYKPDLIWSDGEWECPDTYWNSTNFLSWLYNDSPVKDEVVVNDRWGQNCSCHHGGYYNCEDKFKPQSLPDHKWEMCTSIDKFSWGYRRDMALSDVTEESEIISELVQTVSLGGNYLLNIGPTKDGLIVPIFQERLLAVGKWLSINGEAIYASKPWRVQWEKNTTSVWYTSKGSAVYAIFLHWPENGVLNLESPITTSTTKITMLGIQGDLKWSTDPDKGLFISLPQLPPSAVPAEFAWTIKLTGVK
The experiment can be described thus: Inhibition of human liver α-fucosidase. Here is the method: % Inhibition of human liver α-fucosidase and α-mannosidase
catalysed hydrolysis of 4-umbelliferyl pyrranosides at
1 mM concentration of inhibitor

In experiment [2] the test system is β-mannosidase. Put plainly: Inhibition of human liver β-mannosidase (glycosidase panel). An excerpt:
(§1) The relative potencies of these compounds as fucosidase inhibitors may be understood by considering them as analogues of α-L-fucose; all three compounds have the correct chirality of the secondary hydroxyl groups - the minimum requirement for inhibition of α-fucosidase. […] All the compounds are weaker inhibitors of α-fucosidase than is deoxyfuconojirimycin, since they all lack a lipophilic methyl substituent with correct configuration.

Experiment [3] concerns human α-mannosidases. Put plainly: Inhibition of human α-mannosidases (overall statement, glycosidase panel).
Text: as §1

Regarding `OC[C@H]1NC[C@@H](O)[C@@H](O)[C@@H]1O` [DMJ, reference compound], the “inhibition of α-fucosidase (in words)” value in experiment [1] is “powerful inhibitors of α-fucosidase”. Besides, the “inhibition of β-mannosidase (in words)” value in experiment [2] was “Neither compound inhibited β-mannosidase”. For the same compound, in experiment [3], the “inhibition of α-mannosidases (in words)” value is given as “very similar”.

In the case of `OC[C@@H]1N[C@H](CO)[C@@H](O)[C@@H](O)[C@@H]1O` [6-epi-HMJ, 2,6-dideoxy-2,6-imino-L-glycero-D-talo-heptitol], the “inhibition of α-fucosidase (in words)” value in experiment [1] is reported as “powerful inhibitors of α-fucosidase”. In experiment [3], the “inhibition of α-mannosidases (in words)” value is “did not inhibit any α-mannosidase”.

Take `OC[C@H]1N[C@H](CO)[C@@H](O)C(O)[C@@H]1O` (stereo partly drawn) [α-HMJ, 2,6-Dideoxy-2,6-imino-D-glycero-D-talo-heptitol]: in experiment [1], the “inhibition of α-fucosidase (in words)” value is “only a weak inhibitor”. For the same compound, the “inhibition of β-mannosidase (in words)” value in experiment [2] is listed as “Neither compound inhibited β-mannosidase”. In experiment [3], the “inhibition of α-mannosidases (in words)” value is reported as “very similar”.
